According to ChEMBL document CHEMBL5523747, “Discovery of a Series of Orally Bioavailable Androgen Receptor Degraders for the Treatment of Prostate Cancer” (J Med Chem, 2024):
Activity calls are given as the source filed them. No cut-off for these calls is given here.

Assays:
[1] = target: T1, Protein cereblon/Androgen receptor (Homo sapiens, UniProt P10275+Q96SW2); assay: PROTAC activity at AR/CRBN in human LNCaP cells assessed as protein degradation measured after 24 hrs incubation by imaging IF assay; type: cell-based
Target sequence in this assay (P10275 whole entry): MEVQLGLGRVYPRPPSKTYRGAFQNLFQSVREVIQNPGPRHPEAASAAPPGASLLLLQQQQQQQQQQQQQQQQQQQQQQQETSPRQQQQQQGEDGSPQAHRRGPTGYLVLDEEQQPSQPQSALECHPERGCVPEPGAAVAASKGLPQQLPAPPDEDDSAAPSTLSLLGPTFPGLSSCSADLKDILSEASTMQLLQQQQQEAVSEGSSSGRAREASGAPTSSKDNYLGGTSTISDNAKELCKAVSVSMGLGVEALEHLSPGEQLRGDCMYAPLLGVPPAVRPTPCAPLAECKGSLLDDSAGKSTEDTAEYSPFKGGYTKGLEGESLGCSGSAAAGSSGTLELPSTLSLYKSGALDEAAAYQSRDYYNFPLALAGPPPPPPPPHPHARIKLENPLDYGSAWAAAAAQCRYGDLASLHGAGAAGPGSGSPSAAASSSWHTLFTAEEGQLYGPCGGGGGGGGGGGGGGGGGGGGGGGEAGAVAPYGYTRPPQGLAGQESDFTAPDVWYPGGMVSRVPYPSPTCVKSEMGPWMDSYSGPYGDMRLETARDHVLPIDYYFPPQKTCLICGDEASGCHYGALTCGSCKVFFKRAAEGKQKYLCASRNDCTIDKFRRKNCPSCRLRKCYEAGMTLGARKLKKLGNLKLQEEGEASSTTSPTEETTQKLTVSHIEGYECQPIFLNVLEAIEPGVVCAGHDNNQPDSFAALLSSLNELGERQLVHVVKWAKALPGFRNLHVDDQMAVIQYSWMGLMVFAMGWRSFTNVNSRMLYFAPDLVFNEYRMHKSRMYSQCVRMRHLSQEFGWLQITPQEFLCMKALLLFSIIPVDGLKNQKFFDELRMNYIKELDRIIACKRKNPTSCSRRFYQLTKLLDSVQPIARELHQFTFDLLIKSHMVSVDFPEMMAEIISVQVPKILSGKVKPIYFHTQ
Target sequence in this assay (Q96SW2 whole entry): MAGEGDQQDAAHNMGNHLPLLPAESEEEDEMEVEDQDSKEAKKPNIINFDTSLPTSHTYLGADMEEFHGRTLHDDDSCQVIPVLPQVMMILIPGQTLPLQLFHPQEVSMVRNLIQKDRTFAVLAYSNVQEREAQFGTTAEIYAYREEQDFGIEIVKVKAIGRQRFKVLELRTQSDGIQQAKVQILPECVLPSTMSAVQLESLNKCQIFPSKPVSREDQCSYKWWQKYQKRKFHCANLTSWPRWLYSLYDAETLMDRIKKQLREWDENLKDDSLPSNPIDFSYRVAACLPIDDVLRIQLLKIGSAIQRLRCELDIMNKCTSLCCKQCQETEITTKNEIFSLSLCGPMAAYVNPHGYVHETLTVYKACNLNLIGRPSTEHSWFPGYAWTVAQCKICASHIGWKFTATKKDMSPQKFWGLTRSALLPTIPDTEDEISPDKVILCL

[2] = target: T1, Protein cereblon/Androgen receptor; assay: PROTAC activity at AR/CRBN in human LNCaP cells assessed as maximal protein degradation measured after 24 hrs incubation by imaging IF assay relative to control; type: cell-based
Target sequence in this assay (P10275 whole entry, looked up): as the sequence (P10275 whole entry) above
Target sequence in this assay (Q96SW2 whole entry, looked up): as the sequence (Q96SW2 whole entry) above

[3] = target: Protein cereblon/Androgen receptor (Homo sapiens, UniProt P10275+Q96SW2, L702H); assay: PROTAC activity at CRBN/AR L702H mutant (unknown origin) expressed in human LNCaP cells assessed as protein degradation measured after 24 hrs incubation by imaging IF assay; type: cell-based
Chain of Protein cereblon/Androgen receptor (Homo sapiens, UniProt P10275+Q96SW2, L702H) (P10275 whole entry L702H, stated change not applied): as the sequence (P10275 whole entry) above, with L702H counted along it
Chain of Protein cereblon/Androgen receptor (Homo sapiens, UniProt P10275+Q96SW2, L702H) (Q96SW2 whole entry, stated change not applied): as the sequence (Q96SW2 whole entry) above

[4] = Metabolic stability in human liver microsomes assessed as intrinsic clearance; type: ADME, Microsome; conditions: read-out: CLH
[5] = Half life in CD-1 mouse at 1 mg/kg, po and 0.5 mg/kg, iv; type: ADME, organism-based; conditions: in vivo
[6] = Half life in Beagle dog at 1 mg/kg, po and 0.5 mg/kg, iv infusion over 0.25 hrs; type: ADME, organism-based, Canis lupus familiaris; conditions: in vivo
[7] = Half life in Han Wistar rat at 1 mg/kg, po and 0.5 mg/kg, iv bolus; type: ADME, organism-based; conditions: in vivo
[8] = Volume of distribution at steady state in CD-1 mouse at 1 mg/kg, po and 0.5 mg/kg, iv; type: ADME, organism-based; conditions: in vivo
[9] = Permeability of compound in human Caco-2 cells; type: ADME, cell-based
[10] = Volume of distribution at steady state in CD-1 mouse at 1 mg/kg, po and 0.5 mg/kg, iv bolus; type: ADME, organism-based; conditions: in vivo
[11] = Aqueous solubility of compound at pH 7.4 buffer; type: physicochemical
[12] = Oral bioavailability in Han Wistar rat at 1 mg/kg; type: ADME, organism-based; conditions: in vivo
[13] = Volume of distribution at steady state in Beagle dog at 1 mg/kg, po and 0.5 mg/kg, iv infusion over 0.25 hrs; type: ADME, organism-based, Canis lupus familiaris; conditions: in vivo
[14] = Oral bioavailability in CD-1 mouse at 1 mg/kg; type: ADME, organism-based; conditions: in vivo
[15] = Oral bioavailability in Beagle dog at 1 mg/kg; type: ADME, organism-based, Canis lupus familiaris; conditions: in vivo
[16] = Volume of distribution at steady state in Han Wistar rat at 1 mg/kg, po and 0.5 mg/kg, iv bolus; type: ADME, organism-based; conditions: in vivo
[17] = Half life in CD-1 mouse at 1 mg/kg, po and 0.5 mg/kg, iv bolus; type: ADME, organism-based; conditions: in vivo
LNCaP C4-2 [18] = assay: In vivo degradation of AR in human LNCaP C4-2 cells xenografted in mouse model assessed as degradation at 30 mg/kg, po once daily measured after 10 days relative to control; type: functional; conditions: time 10 day
LNCaP [19] = assay: Anti-proliferative activity against human LNCaP cells assessed as number of live cells measured after 7 days by Sytox Green Nucleic Acid stain assay; type: functional; conditions: 168 h, time 7 day
[20] = target: T1, Protein cereblon/Androgen receptor; assay: PROTAC activity at AR/CRBN in human LNCaP cells assessed as protein degradation measured after 24 hrs incubation in presence of excess lenalidomide CRBN ligand by imaging IF assay; type: cell-based
Target sequence in this assay (P10275 whole entry, looked up): as the sequence (P10275 whole entry) above
Target sequence in this assay (Q96SW2 whole entry, looked up): as the sequence (Q96SW2 whole entry) above

[21] = Total plasma concentration in mouse xenografted with human LNCaP C4-2 cells at 30 mg/kg, po once daily measured after 10 days; type: ADME, organism-based; conditions: time 10 day, read-out: Cp(T)
LNCaP [22] = assay: Effect on AR mRNA level in human LNCaP cells at 0.0001 to 10 uM measured after 24 hrs incubation by QRTPCR analysis; type: functional, cell-based; conditions: dose 0.0001-10 µM
[23] = target: T1, Protein cereblon/Androgen receptor; assay: PROTAC activity at AR/CRBN in adrogen-sensitive human VCaP cells assessed as protein degradation at 0.0001 to 10 uM measured after 24 hrs incubation by Western blot analysis; type: cell-based; conditions: dose 0.0001-10 µM
Target sequence in this assay (P10275 whole entry, looked up): as the sequence (P10275 whole entry) above
Target sequence in this assay (Q96SW2 whole entry, looked up): as the sequence (Q96SW2 whole entry) above

[24] = target: T1, Protein cereblon/Androgen receptor; assay: PROTAC activity at AR/CRBN in androgen-independent human LNCaP C4-2 cells assessed as protein degradation at 0.0001 to 10 uM measured after 24 hrs incubation by Western blot analysis; type: cell-based; conditions: dose 0.0001-10 µM
Target sequence in this assay (P10275 whole entry, looked up): as the sequence (P10275 whole entry) above
Target sequence in this assay (Q96SW2 whole entry, looked up): as the sequence (Q96SW2 whole entry) above

[25] = target: T1, Protein cereblon/Androgen receptor; assay: PROTAC activity at AR/CRBN in human LNCaP cells assessed as protein degradation measured after 24 hrs incubation in presence of excess enzalutamide AR binder by imaging IF assay; type: cell-based
Target sequence in this assay (P10275 whole entry, looked up): as the sequence (P10275 whole entry) above
Target sequence in this assay (Q96SW2 whole entry, looked up): as the sequence (Q96SW2 whole entry) above

LNCaP C4-2 [26] = assay: In vivo antitumor activity in human LNCaP C4-2 cells xenografted in mouse model assessed as tumor growth inhibition at 30 mg/kg, po once daily measured after 28 days relative to control; type: functional; conditions: LNCaP C4-2, 672 h, time 28 day, read-out: TGI
[27] = test system: Protein cereblon/Androgen receptor (Homo sapiens), P10275+Q96SW2 [L702H]; assay: PROTAC activity at CRBN/AR L702H mutant (unknown origin) expressed in human LNCaP cells assessed as maximal protein degradation measured after 24 hrs incubation by imaging IF assay relative to control; type: cell-based
LNCaP C4-2 [28] = assay: In vivo degradation of AR in human LNCaP C4-2 cells xenografted in mouse model assessed as tumor growth inhibition at 50 mg/kg, po once daily measured after 28 days relative to control; type: functional, organism-based; conditions: time 28.0 day
LNCaP C4-2 [29] = assay: In vivo degradation of AR in human LNCaP C4-2 cells xenografted in mouse model assessed as tumor growth inhibition at 10 mg/kg, po once daily measured after 28 days relative to control; type: functional, organism-based; conditions: time 28.0 day
[30] = target: von Hippel-Lindau disease tumor suppressor/Androgen receptor (Homo sapiens) (UniProt P10275+P40337); assay: PROTAC activity at AR/VHL in human LNCaP cells assessed as maximal protein degradation measured after 24 hrs incubation by imaging IF assay relative to control; type: cell-based
Chain of von Hippel-Lindau disease tumor suppressor/Androgen receptor (Homo sapiens) (P10275 whole entry, looked up): as the sequence (P10275 whole entry) above
Chain of von Hippel-Lindau disease tumor suppressor/Androgen receptor (Homo sapiens) (P40337 whole entry, looked up): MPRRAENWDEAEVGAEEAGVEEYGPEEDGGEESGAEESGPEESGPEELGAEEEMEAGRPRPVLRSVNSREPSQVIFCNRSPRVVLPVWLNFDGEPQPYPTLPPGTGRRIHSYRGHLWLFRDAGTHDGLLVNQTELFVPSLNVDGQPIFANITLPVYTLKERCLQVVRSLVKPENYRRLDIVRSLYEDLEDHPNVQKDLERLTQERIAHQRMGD

Row | Structure (SMILES) | DC50 [1] [nM] | Emax [2] [%] | DC50 [3] [nM] | microsomal CLint [4] [µL/min/mg] | half-life [5] [h] | Vdss [8] [L/kg] | bioavailability [14] [%] | Emax [27] [%] | further results
1 | N#Cc1ccc(N2CCC(c3ccc(N4CCC(CN5CCN(c6ccc7c(c6)CN(C6CCC(=O)NC6=O)C7=O)CC5)CC4)cc3)CC2)c(Cl)c1C(F)(F)F (centres undefined) | 48 | 80 | 144 | – | – | – | – | – | –
2 | COc1cc(N2CCN(CC3CCN(c4ccc(C5CCN(c6ccc(C#N)c(C(F)(F)F)c6)CC5)cc4)CC3)CC2)cc2c1C(=O)N(C1CCC(=O)NC1=O)C2 (centres undefined) | 26 | 92 | > 3000 | < 3 | 6.8 | 2.4 | 50 | – | half-life [6]: 21 h; half-life [7]: 9.1 h; Papp [9]: < 0.05 ×10⁻⁶ cm/s; Vdss [10]: 2.4 L/kg; solubility [11]: < 2 µM; bioavailability [12]: 27%; Vdss [13]: 13 L/kg; bioavailability [15]: 19%; Vdss [16]: 7.8 L/kg; half-life [17]: 6.8 h
3 | COc1cc(N2CCN(CC3CCN(c4ccc(C5CCN(c6ccc(C#N)c(C(F)(F)F)c6F)CC5)cc4)CC3)CC2)cc2c1C(=O)N(C1CCC(=O)NC1=O)C2 (centres undefined) | 22 | 96 | 92 | – | 9 | 1.5 | 62 | 74 | Activity (LNCaP C4-2 [18]): >90%; GI50 (LNCaP [19]): 74 nM; half-life [6]: 12.5 h; half-life [7]: 11 h; Vdss [10]: 1.5 L/kg; Activity [20]: inactive; bioavailability [12]: 29%; Vdss [13]: 2.4 L/kg; concentration at 240 h [21]: ~20 µM; Activity (LNCaP [22]): inactive; Activity [23]: Active; Activity [24]: Active; Activity [25]: inactive; bioavailability [15]: 18%; inhibition in vivo at 30 mg/kg (LNCaP C4-2 [26]): 70%; Vdss [16]: 9 L/kg; half-life [17]: 9 h
4 | COc1cc(N2CCN(CC3CCN(c4ccc(C5CCN(c6ccc(C#N)c(C(F)(F)F)c6F)CC5)c(F)c4)CC3)CC2)cc2c1C(=O)N(C1CCC(=O)NC1=O)C2 (centres undefined) | 12 | 100 | 469 | – | 17 | 2.2 | 50 | 100 | –
5 | COc1cc(N2CCN(CC3CCN(c4cc(F)c(C5CCN(c6ccc(C#N)c(C(F)(F)F)c6F)CC5)c(F)c4)CC3)CC2)cc2c1C(=O)N(C1CCC(=O)NC1=O)C2 (centres undefined) | 18 | 100 | 633 | – | 41 | 3.6 | 30 | 80 | –
6 | Cc1c(N2CCC(c3ccc(N4CCC(CN5CCN(c6ccc7c(c6)CN(C6CCC(=O)NC6=O)C7=O)CC5)CC4)cc3)CC2)ccc(C#N)c1C(F)(F)F (centres undefined) | 152 | 70 | > 3000 | – | – | – | – | – | –
7 | N#Cc1ccc(N2CCC(c3ccc(OCCCN4CCN(c5ccc6c(c5)CN(C5CCC(=O)NC5=O)C6=O)CC4)cc3)CC2)cc1C(F)(F)F (centres undefined) | 16 | 79 | – | 5 | – | – | – | – | –
8 | CNC(=O)c1ccc(N2C(=S)N(c3ccc(C#N)c(C(F)(F)F)c3)C(=O)C2(C)C)cc1F | – | – | – | – | – | – | – | – | Activity (LNCaP C4-2 [28]): Active
9 | N#Cc1ccc(N2CCC(c3ccc(N4CCC(CN5CCN(c6ccc7c(c6)C(=O)N(C6CCC(=O)NC6=O)C7=O)CC5)CC4)cc3)CC2)c(F)c1C(F)(F)F (centres undefined) | 170 | 100 | 1330 | – | 32 | 6.2 | 77 | 100 | –
10 | N#Cc1ccc(N2CCC(c3ccc(N4CCC(CN5CCN(c6ccc7c(c6)CN(C6CCC(=O)NC6=O)C7=O)CC5)CC4)cc3)CC2)c(F)c1C(F)(F)F (centres undefined) | 23 | 95 | 77 | – | 19.5 | 2 | 48 | – | –
11 | N#Cc1ccc(N2CCC(c3ccc(N4CCC(CN5CCN(c6ccc7c(c6)CN(C6CCC(=O)NC6=O)C7=O)CC5)CC4)cc3)CC2)cc1C(F)(F)F (centres undefined) | 18 | 85 | > 3000 | 3 | 19 | 4.5 | 46 | – | –
12 | N#Cc1ccc(N2CCC(c3ccc(OCCCCN4CCN(c5ccc6c(c5)CN(C5CCC(=O)NC5=O)C6=O)CC4)cc3)CC2)c(F)c1C(F)(F)F (centres undefined) | 9 | 100 | 107 | – | 7 | 3.4 | 30 | 78 | –
13 | N#Cc1ccc(N2CCC(c3ccc(OCCCCN4CCN(c5ccc6c(c5)C(=O)N(C5CCC(=O)NC5=O)C6=O)CC4)cc3)CC2)cc1C(F)(F)F (centres undefined) | 22 | 100 | – | 21 | – | – | – | – | –
14 | N#Cc1ccc(O[C@H]2CC[C@H](NC(=O)c3ccc(N4CCC(CN5CCN(c6cc7c(cc6F)C(=O)N(C6CCC(=O)NC6=O)C7=O)CC5)CC4)nn3)CC2)cc1Cl (some centres undefined) | – | – | – | – | – | – | – | – | Activity (LNCaP C4-2 [29]): Active
15 | N#Cc1ccc(N2CCC(c3ccc(N4CCC(CN5CCN(c6cc7c(cc6F)C(=O)N(C6CCC(=O)NC6=O)C7=O)CC5)CC4)cc3)CC2)c(F)c1C(F)(F)F (centres undefined) | 87 | 100 | 992 | – | – | – | – | 100 | –
16 | N#Cc1ccc(N2CCC(c3ccc(OCCCCN4CCN(c5ccc6c(c5)CN(C5CCC(=O)NC5=O)C6=O)CC4)cc3)CC2)cc1C(F)(F)F (centres undefined) | 7 | 97 | > 3000 | 10 | 5 | 5.2 | 47 | – | half-life [6]: 53.5 h; half-life [7]: 6.6 h; Papp [9]: < 0.05 ×10⁻⁶ cm/s; Vdss [10]: 5.2 L/kg; solubility [11]: < 2 µM; bioavailability [12]: 20%; Vdss [13]: 7.1 L/kg; bioavailability [15]: 8%; Vdss [16]: 6.2 L/kg; half-life [17]: 5 h
17 | Cc1ncsc1-c1ccc([C@H](C)NC(=O)[C@@H]2C[C@@H](O)CN2C(=O)[C@@H](NC(=O)COCCCCCNc2ccc(C(=O)N[C@H]3C(C)(C)[C@H](Oc4ccc(C#N)c(Cl)c4)C3(C)C)cc2)C(C)(C)C)cc1 | – | – | – | – | – | – | – | – | Emax [30]: 100%
18 | N#Cc1ccc(N2CCC(c3ccc(N4CCC(CN5CCN(c6cc7c(cc6F)C(=O)N(C6CCC(=O)NC6=O)C7)CC5)CC4)cc3)CC2)cc1C(F)(F)F (centres undefined) | 180 | 92 | – | < 3 | – | – | – | – | –
19 | N#Cc1ccc(N2CCC(c3ccc(OCCCCCN4CCN(c5ccc6c(c5)CN(C5CCC(=O)NC5=O)C6=O)CC4)cc3)CC2)cc1C(F)(F)F (centres undefined) | 15 | 94 | – | 12 | – | – | – | – | –
